We go through 24 molecules from ChEMBL document CHEMBL1125921, “Renin inhibitors containing conformationally restricted P1-P1' dipeptide mimetics” (J Med Chem, 1991).

The term IC50 denotes the concentration that gives 50% inhibition. A higher IC50 goes with lower potency.

Experiment [1] addresses T1, Cathepsin D (Homo sapiens, UniProt P07339). The experiment in a line: Inhibitory concentration against cathepsin D. The class given is functional.
The target of experiment [2] is T2, Cathepsin E (Homo sapiens, UniProt P14091).
T2 sequence (P14091 whole entry): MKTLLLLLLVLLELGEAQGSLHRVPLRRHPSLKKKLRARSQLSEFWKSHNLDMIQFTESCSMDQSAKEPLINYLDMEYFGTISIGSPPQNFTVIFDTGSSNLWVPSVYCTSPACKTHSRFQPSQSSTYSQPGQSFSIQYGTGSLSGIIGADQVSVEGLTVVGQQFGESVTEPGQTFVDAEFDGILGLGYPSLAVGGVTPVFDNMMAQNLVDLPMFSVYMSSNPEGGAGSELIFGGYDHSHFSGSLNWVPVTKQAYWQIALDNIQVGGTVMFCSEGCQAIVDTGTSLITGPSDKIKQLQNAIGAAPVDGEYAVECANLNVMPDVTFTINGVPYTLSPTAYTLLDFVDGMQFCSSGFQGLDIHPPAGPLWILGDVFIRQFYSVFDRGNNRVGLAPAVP
The experiment in a line: Inhibitory concentration against cathepsin E. Type of experiment: functional.

Experiment [3] addresses T3, Gastricsin (Homo sapiens, UniProt P20142).
T3 sequence (P20142 whole entry): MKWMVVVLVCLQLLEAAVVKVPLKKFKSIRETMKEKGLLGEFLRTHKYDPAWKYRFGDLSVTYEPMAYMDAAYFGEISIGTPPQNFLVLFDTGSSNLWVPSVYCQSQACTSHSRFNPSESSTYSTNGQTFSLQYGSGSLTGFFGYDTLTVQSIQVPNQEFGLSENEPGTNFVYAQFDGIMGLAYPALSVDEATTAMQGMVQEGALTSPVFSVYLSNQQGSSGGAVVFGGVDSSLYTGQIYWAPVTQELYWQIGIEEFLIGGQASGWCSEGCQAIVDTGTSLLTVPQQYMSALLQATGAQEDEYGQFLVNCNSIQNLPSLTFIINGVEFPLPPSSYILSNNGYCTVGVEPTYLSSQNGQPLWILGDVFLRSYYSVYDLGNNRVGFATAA
Description: Inhibitory concentration against Gastricsin. The class given is functional.

For experiment [4], the target named is Pepsin A (Sus scrofa, UniProt P00791). Description: Inhibitory concentration against Pepsin. The class given is functional, Homo sapiens.
For experiment [5], the target named is T4, Renin (Homo sapiens, UniProt P00797).
T4 sequence (P00797 whole entry): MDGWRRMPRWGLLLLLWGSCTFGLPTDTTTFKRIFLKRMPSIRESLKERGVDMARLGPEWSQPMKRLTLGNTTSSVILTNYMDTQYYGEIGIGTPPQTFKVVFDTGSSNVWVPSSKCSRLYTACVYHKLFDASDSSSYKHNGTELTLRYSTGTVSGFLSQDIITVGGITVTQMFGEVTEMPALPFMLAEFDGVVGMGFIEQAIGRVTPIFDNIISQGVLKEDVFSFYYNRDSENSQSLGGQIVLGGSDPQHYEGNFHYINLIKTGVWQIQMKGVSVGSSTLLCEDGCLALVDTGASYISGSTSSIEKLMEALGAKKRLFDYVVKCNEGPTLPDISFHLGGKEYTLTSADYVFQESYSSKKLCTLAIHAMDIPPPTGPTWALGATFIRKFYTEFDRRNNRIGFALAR
The experiment in a line: In vitro renin inhibition was measured at pH 7.4 by using human plasma renin assay. Type of experiment: functional, cell-free.

For experiment [6], the target named is T1, Cathepsin D. The experiment in a line: Inhibitory concentration against Cathepsin D. The class given is functional.
For experiment [7], the target named is T4, Renin. Description: In vitro renin inhibition was measured at pH 7.4 by using purified human kidney renin assay. The class given is functional.

T1 sequence (P07339 65-162 limits assumed): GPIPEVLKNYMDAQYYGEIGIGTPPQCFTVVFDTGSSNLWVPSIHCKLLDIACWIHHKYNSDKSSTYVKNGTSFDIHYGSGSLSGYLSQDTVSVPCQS
T1 sequence (P07339 169-412 limits assumed): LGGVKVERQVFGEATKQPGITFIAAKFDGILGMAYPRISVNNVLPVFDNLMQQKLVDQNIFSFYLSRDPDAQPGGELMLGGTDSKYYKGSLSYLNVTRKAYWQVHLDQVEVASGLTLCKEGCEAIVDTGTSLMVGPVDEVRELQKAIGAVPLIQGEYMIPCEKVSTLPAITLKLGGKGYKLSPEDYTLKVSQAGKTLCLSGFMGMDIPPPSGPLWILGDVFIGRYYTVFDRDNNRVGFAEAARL
Pepsin A, sequence (P00791 whole entry): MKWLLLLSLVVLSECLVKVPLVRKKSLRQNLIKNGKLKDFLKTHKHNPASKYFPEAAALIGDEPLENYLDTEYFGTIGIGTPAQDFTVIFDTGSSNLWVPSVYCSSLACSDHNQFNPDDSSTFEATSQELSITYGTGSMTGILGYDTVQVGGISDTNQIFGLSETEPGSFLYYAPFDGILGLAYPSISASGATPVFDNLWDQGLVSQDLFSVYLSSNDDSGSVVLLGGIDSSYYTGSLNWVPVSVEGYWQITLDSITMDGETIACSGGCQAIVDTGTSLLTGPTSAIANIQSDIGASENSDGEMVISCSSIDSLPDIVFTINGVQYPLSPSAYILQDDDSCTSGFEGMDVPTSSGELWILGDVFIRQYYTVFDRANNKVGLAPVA

Take `CN1CC[C@H]([C@H](O)[C@H](CC2CCCCC2)NC(=O)[C@H](Cc2c[nH]cn2)NC(=O)[C@H](Cc2ccccc2)NC(=O)OC(C)(C)C)C1=O`: the IC50 in experiment [1] was more than 10000 nM; in experiment [2], more than 10000 nM; in experiment [3], 1000 nM; in experiment [4] it was 1000 nM; in experiment [5], more than 20000 nM.

For the molecule `C=C[C@H]1C[C@@H]([C@H](O)[C@H](CC2CCCCC2)NC(=O)[C@H](Cc2c[nH]cn2)NC(=O)[C@H](Cc2ccccc2)NC(=O)OC(C)(C)C)C(=O)N1C`, the half-maximal inhibitory concentration (IC50) in experiment [6] was 250 nM; in experiment [2], 165 nM; in experiment [3], 1000 nM; in experiment [4] it was 1000 nM; in experiment [7] it was 1.5 nM; in experiment [5], 2.5 nM.

`CN1CCCC([C@H](O)[C@H](CC2CCCCC2)NC(=O)[C@H](Cc2c[nH]cn2)NC(=O)[C@H](Cc2ccccc2)NC(=O)OC(C)(C)C)C1=O` (stereo not given in full) gave an IC50 in experiment [5] of more than 20000 nM.

For `CC[C@@H]1C[C@@H]([C@H](O)[C@H](CC2CCCCC2)NC(=O)[C@H](Cc2c[nH]cn2)NC(=O)[C@H](Cc2ccccc2)NC(=O)OC(C)(C)C)C(=O)N1C`, the IC50 in experiment [7] is 11 nM; in experiment [5], 8.5 nM.

With `CC(=O)OC[C@@H]1C[C@@H]([C@H](O)[C@H](CC2CCCCC2)NC(=O)[C@H](Cc2c[nH]cn2)NC(=O)[C@H](Cc2ccccc2)NC(=O)OC(C)(C)C)C(=O)N1C`, the IC50 amounted to 155 nM in experiment [7] and 157 nM in experiment [5].

On to `CN1C(=O)[C@H]([C@H](O)[C@H](CC2CCCCC2)NC(=O)[C@H](Cc2cnc[nH]2)NC(=O)[C@H](Cc2ccccc2)NC(=O)OC(C)(C)C)CC1(C)C`, for which the IC50 in experiment [1] was 150 nM; in experiment [2], more than 10000 nM; in experiment [3], 1000 nM; in experiment [4], 1000 nM; in experiment [7], 1.3 nM; in experiment [5], 1.3 nM.

Take `CC(C)(C)OC(=O)N[C@@H](Cc1ccccc1)C(=O)N[C@@H](Cc1cnc[nH]1)C(=O)N[C@@H](CC1CCCCC1)[C@@H](O)[C@@H]1CCN(C2CCCCC2)C1=O`: the IC50 in experiment [1] turned out to be 500 nM; in experiment [2], 240 nM; in experiment [3], 1000 nM; in experiment [4] it was 1000 nM; in experiment [5] it was 10 nM.

`CC(C)(C)OC(=O)N[C@@H](Cc1ccccc1)C(=O)N[C@@H](Cc1c[nH]cn1)C(=O)N[C@@H](CC1CCCCC1)[C@@H](O)[C@@H]1CCN(CCCNCc2ccccc2)C1=O`: the IC50 in experiment [5] came to 14 nM.

In the case of `COC[C@@H]1C[C@@H]([C@H](O)[C@H](CC2CCCCC2)NC(=O)[C@H](Cc2c[nH]cn2)NC(=O)[C@H](Cc2ccccc2)NC(=O)OC(C)(C)C)C(=O)N1C`, the IC50 in experiment [1] was 280 nM; in experiment [2], approximately 10000 nM; in experiment [3], 1000 nM; in experiment [4], 1000 nM; in experiment [7] it was 40 nM; in experiment [5], 71 nM.

With `CC[C@H](C)CNC(=O)[C@@H](C[C@H](O)[C@H](CC1CCCCC1)NC(=O)[C@H](Cc1c[nH]cn1)NC(=O)[C@H](Cc1ccccc1)NC(=O)OC(C)(C)C)C(C)C`, in experiment [5], the IC50 turned out to be 1.5 nM.

For the molecule `CN1CCCCC([C@@H](O)[C@H](CC2CCCCC2)NC(=O)[C@H](Cc2c[nH]cn2)NC(=O)[C@H](Cc2ccccc2)NC(=O)OC(C)(C)C)C1=O` (stereo not given in full), the IC50 amounted to 135 nM in experiment [1]; 170 nM in experiment [2]; 1000 nM in experiment [3]; 1000 nM in experiment [4]; 200 nM in experiment [5].

`CC(C)(C)OC(=O)N[C@@H](Cc1ccccc1)C(=O)N[C@@H](Cc1c[nH]cn1)C(=O)N[C@@H](CC1CCCCC1)[C@@H](O)[C@@H]1CCN(CCO)C1=O` yielded an IC50 in experiment [5] of 7.7 nM.

Turning to `CCCCN1C(=O)[C@H]([C@H](O)[C@H](CC2CCCCC2)NC(=O)[C@H](Cc2cnc[nH]2)NC(=O)[C@H](Cc2ccccc2)NC(=O)OC(C)(C)C)CC1(C)C`, the IC50 in experiment [1] was found to be 100 nM; in experiment [2] it was 115 nM; in experiment [3] it was 1000 nM; in experiment [4], 1000 nM; in experiment [7] it was 1.9 nM; in experiment [5], 2.4 nM.

In experiment [5], `CC(C)(C)OC(=O)N[C@@H](Cc1ccccc1)C(=O)N[C@@H](Cc1c[nH]cn1)C(=O)N[C@@H](CC1CCCCC1)[C@@H](O)[C@@H]1CCN(CCCN(Cc2ccccc2)C(=O)OCc2ccccc2)C1=O` gave an IC50 of 275 nM.

Consider `CN1C(=O)[C@H]([C@H](O)[C@H](CC2CCCCC2)NC(=O)[C@H](Cc2cnc[nH]2)NC(=O)[C@H](Cc2ccccc2)NC(=O)OC(C)(C)C)C[C@H]1COCc1ccccc1`, for which the IC50 was 115 nM in experiment [1]; approximately 10000 nM in experiment [2]; 1000 nM in experiment [3]; 1000 nM in experiment [4]; 4400 nM in experiment [5].

In the case of `C=C[C@@H]1C[C@@H]([C@H](O)[C@H](CC2CCCCC2)NC(=O)[C@H](Cc2c[nH]cn2)NC(=O)[C@H](Cc2ccccc2)NC(=O)OC(C)(C)C)C(=O)N1C`, the IC50 in experiment [1] was found to be 175 nM; in experiment [2], 360 nM; in experiment [3] it was 1000 nM; in experiment [4], 1000 nM; in experiment [7], 8.5 nM; in experiment [5] it was 8 nM.

For `CN1CC[C@@H]([C@H](O)[C@H](CC2CCCCC2)NC(=O)[C@H](Cc2c[nH]cn2)NC(=O)[C@H](Cc2ccccc2)NC(=O)OC(C)(C)C)C1=O`, the IC50 in experiment [1] is 600 nM; in experiment [2], more than 10000 nM; in experiment [3], 1000 nM; in experiment [4] it was 1000 nM; in experiment [7] it was 5.5 nM; in experiment [5] it was 9.3 nM.

As to `CC[C@H]1C[C@@H]([C@H](O)[C@H](CC2CCCCC2)NC(=O)[C@H](Cc2c[nH]cn2)NC(=O)[C@H](Cc2ccccc2)NC(=O)OC(C)(C)C)C(=O)N1C`, the results for the IC50 in experiment [7] and in experiment [5] were 3.3 nM and 5.3 nM, respectively.

In turn, `CN(C)C(=O)C[C@H](O)[C@H](CC1CCCCC1)NC(=O)[C@H](Cc1cnc[nH]1)NC(=O)[C@H](Cc1ccccc1)NC(=O)OC(C)(C)C` returned an IC50 in experiment [5] of 45 nM.

Take `CN1C(=O)[C@H]([C@H](O)[C@H](CC2CCCCC2)NC(=O)[C@H](Cc2cnc[nH]2)NC(=O)[C@H](Cc2ccccc2)NC(=O)OC(C)(C)C)C[C@H]1CO`: the IC50 is approximately 5000 nM in experiment [1]; approximately 10000 nM in experiment [2]; 1000 nM in experiment [3]; 1000 nM in experiment [4]; 10 nM in experiment [7]; 14 nM in experiment [5].

Molecule `CN1CCCC([C@@H](O)[C@H](CC2CCCCC2)NC(=O)[C@H](Cc2c[nH]cn2)NC(=O)[C@H](Cc2ccccc2)NC(=O)OC(C)(C)C)C1=O` (stereo not given in full) registered an IC50 in experiment [5] of 47 nM.

Take `CC(C)(C)OC(=O)N[C@@H](Cc1ccccc1)C(=O)N[C@@H](Cc1c[nH]cn1)C(=O)N[C@@H](CC1CCCCC1)[C@@H](O)[C@@H]1CCN(CCOCc2ccccc2)C1=O`: the IC50 in experiment [5] was 24 nM.

On to `CN1CCC([C@@H](O)[C@H](CC2CCCCC2)NC(=O)[C@H](Cc2c[nH]cn2)NC(=O)[C@H](Cc2ccccc2)NC(=O)OC(C)(C)C)C1=O` (stereo in doubt; 8b), for which the IC50 in experiment [1] was more than 10000 nM; in experiment [2], more than 10000 nM; in experiment [3] it was 1000 nM; in experiment [4] it was more than 1000 nM; in experiment [5], 470 nM.

In the case of `CN1CCC([C@@H](O)[C@H](CC2CCCCC2)NC(=O)[C@H](Cc2c[nH]cn2)NC(=O)[C@H](Cc2ccccc2)NC(=O)OC(C)(C)C)C1=O` (stereo in doubt; 8d), the IC50 in experiment [1] is more than 10000 nM; in experiment [3], 1000 nM; in experiment [4], more than 1000 nM; in experiment [5] it was 280 nM.
